# Assay results taken from patent US12023318B2, “Therapy for Inflammatory Linear Verrucous Epidermal Nevus (ILVEN)” (UCL Business Ltd, priority 2018, dated 2024).
# Tested on: Inflammatory Linear Verrucous Epidermal Nevus (ILVEN)
# Experiment: Topical cholesterol/simvastatin treatment of patients with ILVEN
# Format: in vivo, human
# Conditions: patient 9, localised ILVEN left arm; tried after no response to cholesterol/simvastatin
# Excerpt: Fourteen patients with ILVEN were recruited. Photographs were taken of all cases as a baseline. DNA was extracted directly from lymphocytes and from affected skin biopsy without culture, using standard methods. Where possible a second skin biopsy of affected skin was also obtained for primary keratinocyte culture and immortalization with HPV to establish a stable cell line. In a minority of cases a skin biopsy of normal skin was also taken for keratinocyte culture and immortalization. Histopathology of affected skin was obtained in all cases. Thirteen of the fourteen patients were treated with […]/2% simvastatin in Unguentum Merck, applied topically twice a day for a minimum period of three months in the first instance, and only applied to one designated area of affected skin, using the rest of the skin as an internal control. If there was no response in this time the treatment was stopped. Where there was a positive response the treatment has been continued, and extended gradually to different body areas.
smiles,measurement,value
"CC(C)CCC[C@@H](C)[C@H]1CC[C@H]2[C@@H]3CC=C4C[C@@H](O)CC[C@]4(C)[C@H]3CC[C@]12C [cholesterol, Cholesterol]",Response to cholesterol only,no
